Laboratory results taken from patent publication US12022844B2, “Nutritional composition, food/drink composition using nutritional composition, and modified milk powder using nutritional composition” (priority 2018, dated 2024).

How the values were obtained:
[1] = tested on: Lactobacillus acidophhilus ATCC4356; test: Single bacterial culturing with HMO as sugar source, OD650; assay type: cell-based, Lactobacillus acidophilus; details: ATCC 4356^T, sugar source 2%, 8 h, Table 6
Procedure: (§1) A10% solution of glucose (manufactured by Nakarai Tesque Inc.), and 2′-FL ((≥95%) Funakoshi, available from sigma), and LNnT (manufactured by ELICITYL) as examples of HMOs was prepared with ion exchanged water, and was subjected to sterile filtration using Millex-GV (SLGV033RS).
(§2) Lactobacilli MRS Broth (BD) (0.05% L-Cysteine Hydrochloride for Bacteria of the genus Bifidobacterium) was added to strains of Table 1 below (bacteria belonging to Bifidobacterium bifidum) and Table 2 below. After a sterilization treatment, 3% of the bacterial solution was inoculated, and anaerobically cultured (pre-pre cultured) at 37° C. for 16 h. […]
(§3) OD650 was measured from each well in the plates in the above (4) and the above (5) before (0 h) culturing and after (8 h) culturing, by MICROPLATE READER SH-9000 (manufactured by CORONA ELECTRIC). […] After the DNA extraction, the number of proliferating bacteria of Bifidobacteria/lactobacilli was analyzed by using the bacterial species-specific primer noted in Table 4, by a quantitative PCR method (see “Structural analysis of intestinal flora”—analysis of bacterial flora in human feces using quantitative PCR—by Kouichi Watanabe, Enterobacteriological journal, 20:35-42, 2006).
(§4) Regarding strains in Table 2, each strain was cultured as a single bacterium by 2′-FL or LNnT (HMOs) as a sugar source, and OD650 was measured. […]

[2] = tested on: Bifidobacterium adolescentis ATCC15703; test: as above; assay type: cell-based; details: ATCC 15703^T, sugar source 2%, 8 h, Table 6
Procedure: as §1
(§5) Lactobacilli MRS Broth (BD) (0.05% L-Cysteine Hydrochloride for Bacteria of the genus Bifidobacterium) was added to strains of Table 1 below (bacteria belonging to Bifidobacterium bifidum) and Table 2 below. After a sterilization treatment, 3% of the bacterial solution was inoculated, and anaerobically cultured (pre-pre cultured) at 37° C. for 16 h.
(§6) The following day, 1% glucose was added to a modified BL agar medium (“Studies on Bifidobacteria” by Tomotari Mitsuoka, p. 306, Japan Bifidus Foundation, issued in 1994) noted in Table 3, for preparation. After a sterilization treatment, 3% of the pre-pre cultured bacterial solution was inoculated, and anaerobically pre-cultured (pre-cultured) at 37° C. for 12 h.
(§7) The pre-cultured bacterial solution was collected and washed once with a sterile physiological saline solution. Then, mass-up was performed to an equal volume with the modified BL agar medium (“Studies on Bifidobacteria” by Tomotari Mitsuoka, p. 306, Japan Bifidus Foundation, issued in 1994) noted in Table 3 to prepare a suspended bacterial solution.
(§8) The modified BL agar medium (“Studies on Bifidobacteria” by Tomotari Mitsuoka, p. 306, Japan Bifidus Foundation, issued in 1994) noted in Table 3 was prepared at a capacity of 60%, and was subjected to an autoclave sterilization treatment. Then, 40% of each sugar solution prepared in (1) was aseptically added so as to prepare a medium with a sugar concentration of 4%.
(§9) The medium prepared in the above (3) was dispensed at a capacity that is half the capacity for culturing in a 96-well plate, and the bacterial solution prepared in the above (2) was dispensed at a remaining half capacity such that the bacterial solution had 6%. Then, a final sugar concentration was set to 2%. The plate into which the bacterial solution was dispensed was anaerobically cultured at 37° C. for 8 h.
(§10) OD650 was measured from each well in the plates in the above (4) and the above (5) before (0 h) culturing and after (8 h) culturing, by MICROPLATE READER SH-9000 (manufactured by CORONA ELECTRIC). After turbidity measurement, microbial cells were collected, and DNA extraction was performed. After the DNA extraction, the number of proliferating bacteria of Bifidobacteria/lactobacilli was analyzed by using the bacterial species-specific primer noted in Table 4, by a quantitative PCR method (see “Structural analysis of intestinal flora”—analysis of bacterial flora in human feces using quantitative PCR—by Kouichi Watanabe, Enterobacteriological journal, 20:35-42, 2006).
(§11) Regarding strains in Table 2, each strain was cultured as a single bacterium by 2′-FL or LNnT (HMOs) as a sugar source, and OD650 was measured. The results for 2′-FL are noted in Table 6 below, and the results for LNnT are noted in Table 7 below.

[3] = tested on: Lactobacillus plantarum ATCC14917; test: as above; assay type: cell-based; details: ATCC 14917^T, sugar source 2%, 8 h, Table 6
Procedure: as §1, §5, §6, §7, §8, §9, §10, §11

[4] = tested on: Lactobacillus gasseri ATCC33323; test: as above; assay type: cell-based; details: ATCC 33323^T, sugar source 2%, 8 h, Table 6
Procedure: as §1, §5, §6, §7, §8, §9, §10, §11

[5] = tested on: Bifidobacterium longum subsp longum ATCC15707; test: as above; assay type: cell-based; details: ATCC 15707^T, sugar source 2%, 8 h, Table 6
Procedure: as §1, §5, §6, §7, §8, §9, §10, §11

[6] = tested on: Lactobacillus rhamnosus ATCC7469; test: as above; assay type: cell-based; details: ATCC 7469^T, sugar source 2%, 8 h, Table 6
Procedure: as §1, §5, §6, §7, §8, §9, §10, §11

[7] = tested on: Bifidobacterium animalis subsp lactis DSM10140; test: as above; assay type: cell-based; details: DSM 101407, sugar source 2%, 8 h, Table 6
Procedure: as §1, §5, §6, §7, §8, §9, §10, §11

[8] = tested on: Bifidobacterium pseudolongum ATCC25526; test: as above; assay type: cell-based; details: ATCC 25526^T, sugar source 2%, 8 h, Table 6
Procedure: as §1, §5, §6, §7, §8, §9, §10, §11

[9] = tested on: Bifidobacterium adolescentis ATCC15703; test: Mix-culturing with Bifidobacterium bifidum by HMO as sugar source, quantitative PCR; assay type: cell-based; details: ATCC 15703^7 mix-cultured with Bifidobacterium bifidum (NITE BP-02429), sugar source 2%, Table 8
Procedure: as §1, §5, §6, §7, §8
(§12) The medium prepared in the above (3) was dispensed at a capacity that is half the capacity for aseptic culturing in a 96-well plate, and each of the bacterial solutions of strains of bacteria belonging to Bifidobacterium bifidum in Table 1 and probiotics having a low ability to assimilate human milk oligosaccharides in Table 2, which was prepared in the above (2), was dispensed at a remaining […] capacity into the medium prepared in the above (3) such that the bacterial solution had 12%. Then, a final sugar concentration was set to 2%. The plate into which the bacterial solution was dispensed was anaerobically cultured at 37° C. for 8 h.
as §10
(§13) It was decided to culture Bifidobacterium bifidum (NITE BP-02429) in which availability of 2′-FL or LNnT was found as described above, in combination with strains in Table 2, which cannot use 2′-FL or LNnT. Bifidobacterium bifidum (NITE BP-02429) and the strains in Table 2, which cannot use 2′-FL or LNnT, were mix-cultured by 2′-FL or LNnT as a sugar source, and after culturing for 8 h, the proliferation rate of the number of bacteria of each strain (proliferation rate=the number of bacteria after mix-culturing for 8 h/the number of bacteria after single bacterial culturing) was measured by a quantitative PCR method using each strain-specific oligonucleotide primer noted in Table 4, for the strain in Table 2.

[10] = tested on: Lactobacillus rhamnosus ATCC7469; test: as above; assay type: cell-based; details: ATCC 7469^T mix-cultured with Bifidobacterium bifidum (NITE BP-02429), sugar source 2%, Table 8
Procedure: as §1, §5, §6, §7, §8, §12, §10, §13

[11] = tested on: Bifidobacterium pseudolongum ATCC25526; test: as above; assay type: cell-based; details: ATCC 25526^T mix-cultured with Bifidobacterium bifidum (NITE BP-02429), sugar source 2%, Table 8
Procedure: as §1, §5, §6, §7, §8, §12, §10, §13

[12] = tested on: Bifidobacterium peseudocatenulatum ATCC27919; test: Single bacterial culturing with HMO as sugar source, OD650; assay type: cell-based, Bifidobacterium pseudocatenulatum; details: ATCC 27919^T, sugar source 2%, 8 h, Table 6
Procedure: as §1, §2, §3, §4

[13] = tested on: Bifidobacterium animalis subsp lactis MCC-525; test: as above; assay type: cell-based; details: sugar source 2%, 8 h, Table 7
Procedure: as §1, §5, §6, §7, §8, §9, §10, §11

[14] = tested on: Bifidobacterium longum subsp longum BB536; test: as above; assay type: cell-based; details: sugar source 2%, 8 h, Table 7
Procedure: as §1, §5, §6, §7, §8, §9, §10, §11

Molecule: 2′-fucosyllactose [2′-FL]
- OD650 increase value [1]: 0.01
- OD650 increase value [2]: −0.01
- OD650 increase value [3]: 0.013
- OD650 increase value [4]: −0.017
- OD650 increase value [5]: 0.029
- OD650 increase value [6]: 0.058
- OD650 increase value [7]: 0.027
- OD650 increase value [8]: 0.022
- Proliferation rate (number of bacteria after mix-culturing for 8 h/number of bacteria after single bacterial culturing) [9]: 1.91
- Proliferation rate (number of bacteria after mix-culturing for 8 h/number of bacteria after single bacterial culturing) [10]: 2.69
- Proliferation rate (number of bacteria after mix-culturing for 8 h/number of bacteria after single bacterial culturing) [11]: 1.24
- OD650 increase value [12]: 0.02

Molecule: CC(=O)N[C@H]1[C@H](O[C@H]2[C@@H](O)[C@@H](CO)O[C@@H](O[C@H]3[C@H](O)[C@@H](O)C(O)O[C@@H]3CO)[C@@H]2O)O[C@H](CO)[C@@H](O[C@@H]2O[C@H](CO)[C@H](O)[C@H](O)[C@H]2O)[C@@H]1O (mixture of isomers) [LNnT, lacto-N-neotetraose]
- OD650 increase value [13]: 0.096
- OD650 increase value [14]: 0.053
- Proliferation rate (number of bacteria after mix-culturing for 8 h/number of bacteria after single bacterial culturing) [9]: 1.53
- Proliferation rate (number of bacteria after mix-culturing for 8 h/number of bacteria after single bacterial culturing) [10]: 5.03
- Proliferation rate (number of bacteria after mix-culturing for 8 h/number of bacteria after single bacterial culturing) [11]: 0.98
